{"source": "PubChem BioAssay AID1966", "about": "(Sanford-Burnham Center for Chemical Genomics, 2009)", "target": "Beta-galactosidase (Escherichia coli) (UniProt Q8VNN2)", "sequence (Q8VNN2 whole entry, looked up)": "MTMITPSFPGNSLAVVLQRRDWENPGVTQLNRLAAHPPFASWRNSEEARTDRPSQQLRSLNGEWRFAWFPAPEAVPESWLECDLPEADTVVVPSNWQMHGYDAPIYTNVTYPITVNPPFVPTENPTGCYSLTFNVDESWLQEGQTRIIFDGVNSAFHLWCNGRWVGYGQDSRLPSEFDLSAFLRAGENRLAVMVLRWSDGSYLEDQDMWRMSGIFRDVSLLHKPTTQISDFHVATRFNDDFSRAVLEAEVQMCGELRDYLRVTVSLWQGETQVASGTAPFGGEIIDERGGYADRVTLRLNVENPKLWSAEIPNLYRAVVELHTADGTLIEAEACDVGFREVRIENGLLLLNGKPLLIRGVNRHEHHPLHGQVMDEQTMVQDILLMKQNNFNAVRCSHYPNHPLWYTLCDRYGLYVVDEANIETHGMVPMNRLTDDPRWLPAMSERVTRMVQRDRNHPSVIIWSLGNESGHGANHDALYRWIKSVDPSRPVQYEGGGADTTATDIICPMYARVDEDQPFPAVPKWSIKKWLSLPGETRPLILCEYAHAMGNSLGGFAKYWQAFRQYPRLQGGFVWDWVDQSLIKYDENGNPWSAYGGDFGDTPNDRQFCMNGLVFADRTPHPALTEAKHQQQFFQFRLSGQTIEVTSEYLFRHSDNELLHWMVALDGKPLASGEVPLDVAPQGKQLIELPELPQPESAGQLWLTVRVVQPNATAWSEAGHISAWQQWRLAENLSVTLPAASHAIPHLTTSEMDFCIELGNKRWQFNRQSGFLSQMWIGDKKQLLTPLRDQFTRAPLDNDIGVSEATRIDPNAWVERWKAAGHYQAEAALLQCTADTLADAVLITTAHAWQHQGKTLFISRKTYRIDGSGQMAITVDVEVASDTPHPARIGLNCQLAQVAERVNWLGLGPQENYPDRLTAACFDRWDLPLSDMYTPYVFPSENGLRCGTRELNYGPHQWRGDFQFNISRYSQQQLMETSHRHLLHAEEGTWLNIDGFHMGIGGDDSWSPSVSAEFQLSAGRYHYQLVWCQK", "assay": "E. coli beta-galactosidase enzyme inhibition, dose response, counter-screen, biochemical (AID 1966)", "conditions": "purified E. coli beta-galactosidase enzyme activity", "note": "Activity calls are given as the source filed them. How the calls were made is not given here.", "data": [{"smiles": "CCNC(=O)C1CCCN1C(=O)C(CCCN=C(N)N)NC(=O)C(CC(C)C)NC(=O)C(Cc1cn(Cc2ccccc2)cn1)NC(=O)C(Cc1ccc(O)cc1)NC(=O)C(CO)NC(=O)C(Cc1c[nH]c2ccccc12)NC(=O)C(Cc1cnc[nH]1)NC(=O)C1CCC(=O)N1", "note": "(stereo unspecified)", "values": [{"measurement": "IC50", "value": "> 31.5 µM (inactive)"}]}]}
